# Data taken from the METLIN SMRT retention time set (Domingo-Almenara et al. 2019).
# Test: gradient 5% acetonitrile 3 min, to 50% in 2 min, to 85% in 15 min, held 3 min, 100 µL/min
# Conditions: column: Zorbax Extend-C18 2.1 x 50 mm; eluents: water / acetonitrile, 0.1% formic acid
# In short: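 Over 3 months, pure standards in mixtures of ~100 molecules were run by HPLC coupled to a quadrupole time-of-flight mass spectrometer in positive and negative ionization mode. The column was a Zorbax Extend-C18 (2.1 × 50 mm, 1.8 μm) at 100 μL/min, eluted with water and acetonitrile each holding 0.1% formic acid, with 40 μL dead and 900 μL dwell volumes. Retention time was determined from adduct peaks chosen by software and checked manually.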
row,SMILES,RP-LC retention time
1,COc1cc(CNC(=O)CCC(=O)N2CC3CCCN3c3ccccc32)cc(OC)c1OC (centres undefined),818 s
2,Cn1cc(C(=O)NCc2ccc(N3CCCCC3)cc2)c2cccnc21,576 s
3,COc1ccc(-n2nnc(-c3nsc(Nc4ccc(OC)c(Cl)c4)n3)c2C)cc1,1010 s
4,CC(=O)c1ccc(-n2ccc3c(cnc4c(-c5ccccc5)c(C)nn43)c2=O)cc1,969 s
5,Nc1ccc2c(c1)CN1C(=O)c3ccccc3C1=N2,639 s
6,Nc1cc(S(=O)(=O)N2CCCCCC2)ccc1Cl,902 s
7,O=C(Cc1ccccc1)Nc1c(C(=O)N2CCN(c3ccccn3)CC2)oc2ccccc12,673 s
8,O=C(Cn1nc(N2CCCCCC2)c2ccccc2c1=O)Nc1ccccc1,1050 s
9,c1ccc(CN2CCN(c3c4c(nc5nc(-c6ccccc6)nn35)CCCC4)CC2)cc1,668 s
10,CCOCCCNC(=O)C(C)Oc1ccc(=O)n(-c2ccc(C)c(C)c2)n1 (centres undefined),871 s
11,O=C(Cc1ccccc1F)Nc1cnc(-c2cccnc2)nc1,652 s
12,O=S(=O)(c1ccccc1F)N1CCc2nc(-c3ccc(Cl)cc3)ncc2C1,1190 s
13,CCOc1ccc(NC(=O)C2CCCN(C)C2)cc1 (centres undefined),643 s
14,COc1ccc(-c2cn3c(CC(=O)Nc4ccc(F)cc4Cl)csc3n2)cc1,795 s
15,Cn1cnc([N+](=O)[O-])c1Sc1nnnn1-c1ccccc1,715 s
16,CSc1ccccc1C(=O)Nc1ccc(CC(=O)NCC(F)(F)F)cc1,738 s
17,CCCCN1CCN(C(=O)c2cc(CC)n3nc(-c4ccccn4)cc3n2)CC1,614 s
18,CCc1noc(NC(C)=O)c1-c1ccc(C)c(S(=O)(=O)Nc2ccc(OC)c(Cl)c2)c1,1300 s
19,COCCN1CCC(N2CCN(S(=O)(=O)c3ccccc3Cl)CC2)C1=O (centres undefined),567 s
20,O=C(N[C@H](Cc1ccccc1)C(=O)NCc1cscn1)c1ccc(F)cc1,1090 s
21,O=C(NCC1CCOCC1)c1ccc2c(c1)OCO2,655 s
22,COc1ncc(C(=O)Nc2cc(C)ccc2C)c(C)n1,748 s
23,Cn1cc2c3c(cccc31)CN(C(=O)Nc1cc(Cl)ccc1Cl)CC2,1170 s

row,SMILES,RP-LC retention time
1,Cc1cc(C)c2nc(-c3ccccc3Br)cc(C(=O)O)c2c1,1130 s
2,O=C(CCc1ccccc1)Nc1nnc(C2CC(=O)N(c3ccc(Cl)cc3)C2)o1 (centres undefined),805 s
3,Cc1csc(COc2ccc(C(=O)Nc3ccc4cn[nH]c4c3)cc2)n1,711 s
4,O=C(c1cc(Cl)ccc1Cl)N(CCc1cccs1)C1CC1,1070 s
5,Cc1oc(C2CCN(C(=O)Cc3c(F)cccc3Cl)CC2)nc1C(=O)N1CCCC1,848 s
6,COc1cc(NC(=O)c2cn3c(n2)CCCC3)cc(OC)c1,614 s
7,O=C1/C(=C/c2ccccc2)CN(C(=O)/C=C/c2ccccc2)C/C1=C\c1ccccc1,1140 s
8,Cc1c(F)cccc1NC(=O)c1cc2n(n1)CCCC2,931 s
9,C=CCN1CCc2c(cc(O)c(O)c2Cl)C(c2ccccc2)C1 (centres undefined),666 s
10,Cn1ncc2c(N3CCSCC3)nc(C(=O)NC3CC3)nc21,670 s
11,COc1cc(OC)cc(N2C=C(C#N)S(=O)(=O)c3c(F)cccc32)c1,906 s
12,O=C(Nc1cnn(-c2ncncc2N2CCOCC2)c1)C1CCCC1,624 s
13,CCC(c1cccs1)N1C(=O)[C@H]2CN(S(=O)(=O)c3ccccc3Cl)C[C@H]2C1=O (some centres undefined),1000 s
14,CCN(CC)S(=O)(=O)c1ccc2c(c1)N(CC(=O)NCc1ccc(C)o1)C(=O)C1CCCCN21 (centres undefined),959 s
15,CCOC(=O)c1ccccc1NC(=O)NCC(c1cccnc1)c1cn(C)c2ccccc12 (centres undefined),824 s
16,Cc1cc2nc(N3CCOCC3)n(CC(=O)Nc3cc(F)cc(F)c3)c(=O)c2n1C,677 s
17,Cc1cc(=O)n(CC(=O)Nc2ccc(F)c(Cl)c2)c(N2CCOCC2)n1,677 s
18,CCc1ccc(CNC(=O)C2CCN(c3ncccc3S(=O)(=O)N3CCCCC3)CC2)cc1,1040 s
19,O=C(NCCNC(=O)Nc1cccc(Cl)c1)Nc1cccc(Cl)c1,782 s
20,CC(=O)N1CCCSc2ccc(S(=O)(=O)N3CCN(c4ccc(Cl)cc4)CC3)cc21,983 s
21,CCC(C)NC(=O)CC1CCN(C(=O)c2ccc3oc(C4CC4)nc3c2)CC1 (centres undefined),710 s
22,Cc1ccc(Cc2nc(-c3cccc(-c4ccn[nH]4)c3)no2)cc1,999 s
23,COc1ccc(NC(=O)N2CCCC2c2nncn2C2CCCC2)c(OC)c1 (centres undefined),662 s

row,SMILES,RP-LC retention time
1,Cc1ccc(CNC(=O)C2CCN(c3cnc4nccnc4c3)CC2)cc1,705 s
2,Cc1cccc(S(=O)(=O)N2CCC(C)(C(=O)NCc3ccccc3)CC2)c1,935 s
3,CC1Oc2ccc(-c3csc(NC(=O)C4CC4)n3)cc2N(C)C1=O (centres undefined),787 s
4,CSc1cccc(NC(=O)CN2C(=O)C3CCCCN3c3ccc(S(=O)(=O)N(C)C)cc32)c1 (centres undefined),982 s
5,COc1cc(CSc2nc(CC(=O)NCc3cccs3)cs2)cc(OC)c1,873 s
6,Cc1cccc(Nc2c(-c3ccc(Cl)cc3)nc3cnccn23)c1C,1110 s
7,CCc1cc(C2CCCN2C(=O)Nc2ccc(OC)cc2OC)on1 (centres undefined),829 s
8,O=C(Cc1c(Sc2ccccc2)[nH]c2ccccc12)N1CCN(c2ccccn2)CC1,679 s
9,Cc1cc(NC(=O)C(=O)NCCc2ccc(S(N)(=O)=O)cc2)no1,613 s
10,CCN1C(=O)c2ccccc2Oc2ccc(C(=O)N3CCN(c4cc(Cl)ccc4C)CC3)cc21,1190 s
11,CCOC(=O)c1sc2ccccc2c1S(=O)(=O)N1CCC(C(N)=O)(N2CCCCC2)CC1,656 s
12,CN(CC1CCOCC1)C(=O)Cc1ccccc1,695 s
13,O=C(NCCN1CCCCC1)C1CCN(c2nccnc2Sc2ccccc2)CC1,666 s
14,COc1ccc(OC)c(-c2cc(C(=O)Nc3ccc4c(c3)CCC(=O)N4)[nH]n2)c1,681 s
15,Cc1sc(NC(=O)c2ccc(F)cc2)nc1-c1ccc2c(c1)NC(=O)C(C)O2 (centres undefined),935 s
16,Cc1cccc(-c2nc(Cn3nnc(-c4nc(-c5cccnc5)no4)c3C)c(C)o2)c1,1060 s
17,COc1ccc(CNC(=O)CSc2cc(N3CCN(c4ccc(OC)cc4)CC3)ncn2)cc1,1090 s
18,O=C(NCc1ccc(F)c(Cl)c1)c1ccc(NC(=O)C2CCC2)cc1N1CCOCC1,909 s
19,CCn1nccc1C1CCCN1C(=O)c1c(Cl)cnn1C (centres undefined),677 s
20,O=C(NCC1CCCO1)c1cccc(Nc2c(-c3ccccc3)nc3cnccn23)c1 (centres undefined),679 s
21,Cc1ccc(C(=O)NC(C)C(=O)Nc2nc3ccccc3[nH]2)cc1 (centres undefined),648 s
22,Cc1nnc(-c2ccc(=O)n(CC(=O)NCc3ccc(F)c(Cl)c3)c2)o1,672 s
23,COc1cccc(CNC(=O)C2CCCN(c3cnc4nccnc4c3)C2)c1OC (centres undefined),675 s

row,SMILES,RP-LC retention time
1,CCOC(=O)c1c(N2C(=O)C3C4C=CC(O4)C3C2=O)sc2c1CCCC2 (centres undefined),872 s
2,O=C(Cn1cc(-c2nc(-c3ccc(Cl)cc3)no2)ccc1=O)N1CCCC1,959 s
3,Cc1nc2cc(N3CC(C(=O)NCc4ccccc4F)CC3=O)ccc2o1 (centres undefined),699 s
4,Cc1cc2c(=O)n(CC(=O)NCc3cccc(Cl)c3)c3cccnc3n2n1,727 s
5,COc1ccc(-c2nnc(-c3ccc(C)c(S(=O)(=O)N(C)C)c3)o2)cc1OC,878 s
6,CCc1noc(NC(C)=O)c1-c1ccc(C)c(S(=O)(=O)Nc2cc(C)ccc2C)c1,900 s
7,CCn1nccc1-c1cccc(-c2noc(-c3ccc(C)cc3)n2)c1,1310 s
8,O=C(c1ccc(Cl)cc1)N1CCN(c2ccc([N+](=O)[O-])c3ncccc23)CC1,957 s
9,Cc1cc(C)n(-c2cc(N3CCN(c4nc(-c5ccccc5)cs4)CC3)ccc2[N+](=O)[O-])n1,1190 s
10,COc1ccc(OC)c(NC(=O)C2CCN(C(=O)C3Sc4ccccc4NC3=O)CC2)c1 (centres undefined),754 s
11,CCc1noc(-c2ccnc(-n3cnc(C(=O)NC(C)C)c3)c2)n1,784 s
12,COc1cccc(Cn2c(=O)c3sccc3n(Cc3nc(-c4ccc(F)c(Cl)c4)no3)c2=O)c1,1170 s
13,Cc1ccc(-c2ccc(S(=O)(=O)N3CCCC3)cc2)cc1,1070 s
14,Cc1ccc(-c2nnc(N3CCC(C(=O)NCCC(C)C)CC3)o2)cc1,881 s
15,CCOC(=O)c1nc(Nc2ccc(OCC)cc2)c2ccccc2n1,806 s
16,CCc1ccc(NC(=O)N2CCN(Cc3ccc4nccnc4c3)CC2)cc1,626 s
17,COCCNC(=O)CCc1cc2ccc(C)cc2[nH]c1=O,614 s
18,CN1CC(=O)N(CC(=O)N2CCN(c3ccc(Cl)cc3)CC2)c2ccccc2C1=O,746 s
19,Cc1nc2cc(-c3noc(-c4ccc(Br)cc4)n3)ccc2o1,1230 s
20,COc1ccccc1-c1nc2nccc(-c3cc4ccccc4o3)n2n1,1010 s
